Assay results reported in patent US9062124B2, “GIP-based mixed agonists for treatment of metabolic disorders and obesity” (priority 2008, dated 2015).
Where a SMILES comes first, the peptide text is derived from it. Bridges are numbered along the chain shown (N, C = ends).

Tests used:
Type in all cases: cell-based
GLP-1 receptor = biological target: T1, GLP-1 receptor (Homo sapiens, UniProt P43220); assay: cAMP synthesis functional assay (firefly luciferase reporter in HEK293 cells), GLP-1 receptor; details: Table 1; for GLP-1 Receptor relative activity: relative to the native hormone of the indicated receptor
T1 construct: expressed in transfected cells; host or cells: HEK293
T1 sequence (P43220 24-463, species assumed): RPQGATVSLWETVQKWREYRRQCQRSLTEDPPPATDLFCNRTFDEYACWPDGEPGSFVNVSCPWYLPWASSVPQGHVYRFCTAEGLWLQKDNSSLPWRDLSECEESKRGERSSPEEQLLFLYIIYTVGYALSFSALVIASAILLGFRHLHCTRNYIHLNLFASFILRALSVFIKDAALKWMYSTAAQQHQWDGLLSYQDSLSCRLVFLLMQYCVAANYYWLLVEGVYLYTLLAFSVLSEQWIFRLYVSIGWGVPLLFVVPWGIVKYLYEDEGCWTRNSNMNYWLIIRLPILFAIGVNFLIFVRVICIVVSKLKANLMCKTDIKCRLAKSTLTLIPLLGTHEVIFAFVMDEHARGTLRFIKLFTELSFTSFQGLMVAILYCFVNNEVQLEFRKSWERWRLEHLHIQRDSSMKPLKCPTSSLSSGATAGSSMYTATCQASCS

glucagon receptor = biological target: T2, glucagon receptor (Homo sapiens, UniProt P47871); assay: cAMP synthesis functional assay (firefly luciferase reporter in HEK293 cells), glucagon receptor; details: Table 1; for Glucagon Receptor relative activity: relative to the native hormone of the indicated receptor
T2 construct: expressed in transfected cells; host or cells: HEK293
T2 sequence (P47871 26-477): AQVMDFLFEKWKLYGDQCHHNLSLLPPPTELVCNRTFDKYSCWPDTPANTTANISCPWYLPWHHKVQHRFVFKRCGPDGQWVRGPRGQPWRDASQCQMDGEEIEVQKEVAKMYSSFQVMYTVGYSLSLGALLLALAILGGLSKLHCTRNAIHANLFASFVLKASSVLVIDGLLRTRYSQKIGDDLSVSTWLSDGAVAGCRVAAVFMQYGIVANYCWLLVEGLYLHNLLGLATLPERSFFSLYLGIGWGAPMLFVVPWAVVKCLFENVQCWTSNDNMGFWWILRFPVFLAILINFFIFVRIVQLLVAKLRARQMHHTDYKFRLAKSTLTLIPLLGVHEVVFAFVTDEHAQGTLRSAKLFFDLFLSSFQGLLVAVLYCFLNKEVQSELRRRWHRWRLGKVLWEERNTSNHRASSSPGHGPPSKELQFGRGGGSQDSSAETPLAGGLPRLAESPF

GIP receptor = biological target: T3, GIP receptor (Homo sapiens, UniProt P48546); assay: cAMP synthesis functional assay (firefly luciferase reporter in HEK293 cells), GIP receptor; details: Table 1; for GIP Receptor relative activity: relative to the native hormone of the indicated receptor
T3 construct: expressed in transfected cells; host or cells: HEK293
T3 sequence (P48546 22-466): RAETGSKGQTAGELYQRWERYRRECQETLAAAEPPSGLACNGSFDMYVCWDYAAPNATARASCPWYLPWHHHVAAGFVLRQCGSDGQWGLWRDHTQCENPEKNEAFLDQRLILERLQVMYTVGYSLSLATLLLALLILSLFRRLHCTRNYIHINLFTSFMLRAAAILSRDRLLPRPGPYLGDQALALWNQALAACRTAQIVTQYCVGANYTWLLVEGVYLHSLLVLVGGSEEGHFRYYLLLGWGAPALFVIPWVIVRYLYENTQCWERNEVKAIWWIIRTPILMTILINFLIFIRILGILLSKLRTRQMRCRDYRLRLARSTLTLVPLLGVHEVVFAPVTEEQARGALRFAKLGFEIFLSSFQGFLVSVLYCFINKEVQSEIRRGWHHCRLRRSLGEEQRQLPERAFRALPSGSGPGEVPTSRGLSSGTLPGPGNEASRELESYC

Question: How did the EC50 (GLP-1 receptor; GLP-1 Receptor EC50, nM) turn out when `CC[C@H](C)[C@H](NC(=O)[C@H](CO)NC(=O)[C@H](Cc1ccc(O)cc1)NC(=O)[C@H](CC(=O)O)NC(=O)[C@H](CO)NC(=O)[C@@H](NC(=O)[C@H](Cc1ccccc1)NC(=O)[C@@H](NC(=O)CNC(=O)[C@H](CCC(N)=O)NC(=O)[C@H](CO)NC(=O)[C@@H](N)Cc1c[nH]cn1)[C@@H](C)O)[C@@H](C)O)C(=O)N[C@@H](Cc1ccc(O)cc1)C(=O)N[C@@H](CCSC)C(=O)N[C@@H](CC(=O)O)C(=O)N[C@H]1CCC(=O)NCCCC[C@@H](C(=O)N[C@@H](CC(=O)O)C(=O)N[C@@H](Cc2ccccc2)C(=O)N[C@H](C(=O)N[C@@H](CC(N)=O)C(=O)N[C@@H](Cc2c[nH]c3ccccc23)C(=O)N[C@@H](CC(C)C)C(=O)N[C@@H](CC(C)C)C(=O)N[C@@H](C)C(=O)N[C@@H](CCC(N)=O)C(N)=O)C(C)C)NC(=O)[C@H](CCC(N)=O)NC(=O)[C@H](Cc2c[nH]cn2)NC(=O)[C@H]([C@@H](C)CC)NC1=O` [mt-124] (H-HSQGTFTSDYSIYMDEIHQKDFVNWLLAQ-NH2; lactam 16-20; N-terminus assumed) was run?
Answer: Its EC50 is 0.04 nM.

Question: What about the “GLP-1 Receptor relative activity” value (GLP-1 receptor) of the same compound?
Answer: Its value is 100.00%.

Question: What about the “Glucagon Receptor relative activity” value (glucagon receptor) of the same compound?
Answer: Its value is 8.64%.

Question: What about the “GIP Receptor relative activity” value (GIP receptor) of the same compound?
Answer: The value was 0.95%.

Question: For `CC[C@H](C)[C@H](NC(=O)[C@H](CO)NC(=O)[C@H](Cc1ccc(O)cc1)NC(=O)[C@H](CC(=O)O)NC(=O)[C@H](CO)NC(=O)[C@@H](NC(=O)[C@H](Cc1ccccc1)NC(=O)[C@@H](NC(=O)CNC(=O)[C@H](CCC(N)=O)NC(=O)[C@H](CO)NC(=O)[C@@H](N)Cc1ccc(O)cc1)[C@@H](C)O)[C@@H](C)O)C(=O)N[C@@H](Cc1ccc(O)cc1)C(=O)N[C@@H](CCSC)C(=O)N[C@@H](CC(=O)O)C(=O)N[C@H]1CCC(=O)NCCCC[C@@H](C(=O)N[C@@H](CC(=O)O)C(=O)N[C@@H](Cc2ccccc2)C(=O)N[C@H](C(=O)N[C@@H](CC(N)=O)C(=O)N[C@@H](Cc2c[nH]c3ccccc23)C(=O)N[C@@H](CC(C)C)C(=O)N[C@@H](CC(C)C)C(=O)N[C@@H](C)C(=O)N[C@@H](CCC(N)=O)C(N)=O)C(C)C)NC(=O)[C@H](CCC(N)=O)NC(=O)[C@H](Cc2c[nH]cn2)NC(=O)[C@H]([C@@H](C)CC)NC1=O` [mt-125] (H-YSQGTFTSDYSIYMDEIHQKDFVNWLLAQ-NH2; lactam 16-20; N-terminus assumed), which “GLP-1 Receptor relative activity” value (GLP-1 receptor) is on record?
Answer: The value was 3.17%.

Question: And the “Glucagon Receptor relative activity” value (glucagon receptor)?
Answer: Its value is 9.06%.

Question: And the “GIP Receptor relative activity” value (GIP receptor)?
Answer: The value was 19.64%.

Question: Which “GLP-1 Receptor relative activity” value (GLP-1 receptor) does the source give for `CC(C)C[C@H](NC(=O)[C@H](CC(C)C)NC(=O)[C@H](Cc1c[nH]c2ccccc12)NC(=O)[C@H](CC(N)=O)NC(=O)[C@@H](NC(=O)[C@H](Cc1ccccc1)NC(=O)[C@H](CCC(=O)O)NC(=O)[C@@H]1CCCCNC(=O)CC[C@H](NC(=O)[C@H](CC(=O)O)NC(=O)[C@H](CC(C)C)NC(=O)[C@H](Cc2ccc(O)cc2)NC(=O)[C@H](CCCCN)NC(=O)[C@H](CO)NC(=O)[C@H](Cc2ccc(O)cc2)NC(=O)[C@H](CC(=O)O)NC(=O)[C@H](CO)NC(=O)[C@@H](NC(=O)[C@H](Cc2ccccc2)NC(=O)[C@@H](NC(=O)CNC(=O)[C@H](CCC(N)=O)NC(=O)[C@H](CO)NC(=O)[C@@H](N)Cc2ccc(O)cc2)[C@@H](C)O)[C@@H](C)O)C(=O)N[C@@H](CCC(N)=O)C(=O)N[C@@H](C)C(=O)N[C@@H](C)C(=O)N1)C(C)C)C(=O)N[C@@H](C)C(=O)NCC(=O)NCC(=O)N1CCC[C@H]1C(=O)N[C@@H](CO)C(=O)N[C@@H](CO)C(=O)NCC(=O)N[C@@H](C)C(=O)N1CCC[C@H]1C(=O)N1CCC[C@H]1C(=O)N1CCC[C@H]1C(=O)N[C@@H](CO)C(N)=O` [mt-127] (H-YSQGTFTSDYSKYLDEQAAKEFVNWLLAGGPSSGAPPPS-NH2; lactam 16-20; N-terminus assumed) here?
Answer: Its value is 87.75%.

Question: What about the EC50 (glucagon receptor; Glucagon Receptor EC50, nM) of the same compound?
Answer: Its EC50 is 0.044 nM.

Question: What about the “Glucagon Receptor relative activity” value (glucagon receptor) of the same compound?
Answer: Its value is 718.39%.

Question: What about the “GIP Receptor relative activity” value (GIP receptor) of the same compound?
Answer: Its value is 10.51%.

Question: `CC[C@H](C)[C@H](NC(=O)[C@H](Cc1ccccc1)NC(=O)[C@H](CC(=O)O)NC(=O)[C@@H]1CCCCNC(=O)CC[C@H](NC(=O)[C@H](CC(=O)O)NC(=O)[C@H](CC(C)C)NC(=O)[C@H](Cc2ccc(O)cc2)NC(=O)[C@H](CCCCN)NC(=O)[C@H](CO)NC(=O)[C@H](Cc2ccc(O)cc2)NC(=O)[C@H](CC(=O)O)NC(=O)[C@H](CO)NC(=O)[C@@H](NC(=O)[C@H](Cc2ccccc2)NC(=O)[C@@H](NC(=O)CNC(=O)[C@H](CCC(N)=O)NC(=O)[C@H](CO)NC(=O)[C@@H](N)Cc2c[nH]cn2)[C@@H](C)O)[C@@H](C)O)C(=O)N[C@@H]([C@@H](C)CC)C(=O)N[C@@H](Cc2c[nH]cn2)C(=O)N[C@@H](CCC(N)=O)C(=O)N1)C(=O)N[C@@H](C)C(=O)N[C@@H](Cc1c[nH]c2ccccc12)C(=O)N[C@@H](CC(C)C)C(=O)N[C@@H](CCSC)C(=O)N[C@@H](CC(N)=O)C(=O)NCC(=O)NCC(=O)N1CCC[C@H]1C(=O)N[C@@H](CO)C(=O)N[C@@H](CO)C(=O)NCC(=O)N[C@@H](C)C(=O)N1CCC[C@H]1C(=O)N1CCC[C@H]1C(=O)N1CCC[C@H]1C(=O)N[C@@H](CO)C(N)=O` [mt-128] (H-HSQGTFTSDYSKYLDEIHQKDFIAWLMNGGPSSGAPPPS-NH2; lactam 16-20; N-terminus assumed) was tested. Which “GLP-1 Receptor relative activity” value (GLP-1 receptor) did it give?
Answer: The value was 33.33%.

Question: What about the “Glucagon Receptor relative activity” value (glucagon receptor) of the same compound?
Answer: Its value is 11.13%.

Question: What about the EC50 (GIP receptor; GIP Receptor EC50, nM) of the same compound?
Answer: Its EC50 is 14.6 nM.

Question: What about the “GIP Receptor relative activity” value (GIP receptor) of the same compound?
Answer: Its value is 0.42%.

Question: For `CC[C@H](C)[C@H](NC(=O)[C@H](Cc1ccccc1)NC(=O)[C@H](CC(=O)O)NC(=O)[C@@H]1CCCCNC(=O)CC[C@H](NC(=O)[C@H](CC(=O)O)NC(=O)[C@H](CC(C)C)NC(=O)[C@H](Cc2ccc(O)cc2)NC(=O)[C@H](CCCCN)NC(=O)[C@H](CO)NC(=O)[C@H](Cc2ccc(O)cc2)NC(=O)[C@H](CC(=O)O)NC(=O)[C@H](CO)NC(=O)[C@@H](NC(=O)[C@H](Cc2ccccc2)NC(=O)[C@@H](NC(=O)CNC(=O)[C@H](CCC(N)=O)NC(=O)[C@H](CO)NC(=O)[C@@H](N)Cc2ccc(O)cc2)[C@@H](C)O)[C@@H](C)O)C(=O)N[C@@H]([C@@H](C)CC)C(=O)N[C@@H](Cc2c[nH]cn2)C(=O)N[C@@H](CCC(N)=O)C(=O)N1)C(=O)N[C@@H](C)C(=O)N[C@@H](Cc1c[nH]c2ccccc12)C(=O)N[C@@H](CC(C)C)C(=O)N[C@@H](CCSC)C(=O)N[C@@H](CC(N)=O)C(=O)NCC(=O)NCC(=O)N1CCC[C@H]1C(=O)N[C@@H](CO)C(=O)N[C@@H](CO)C(=O)NCC(=O)N[C@@H](C)C(=O)N1CCC[C@H]1C(=O)N1CCC[C@H]1C(=O)N1CCC[C@H]1C(=O)N[C@@H](CO)C(N)=O` [mt-129] (H-YSQGTFTSDYSKYLDEIHQKDFIAWLMNGGPSSGAPPPS-NH2; lactam 16-20; N-terminus assumed), which “GLP-1 Receptor relative activity” value (GLP-1 receptor) is on record?
Answer: Its value is 1.12%.

Question: And the “Glucagon Receptor relative activity” value (glucagon receptor)?
Answer: The value was 17.34%.

Question: And the “GIP Receptor relative activity” value (GIP receptor)?
Answer: The value was 2.06%.

Question: Which results are given for `CC[C@H](C)[C@H](NC(=O)[C@H](Cc1ccccc1)NC(=O)[C@H](CCC(=O)O)NC(=O)[C@@H]1CCCCNC(=O)CC[C@H](NC(=O)[C@H](CC(=O)O)NC(=O)[C@H](CC(C)C)NC(=O)[C@H](Cc2ccc(O)cc2)NC(=O)[C@H](CCCCN)NC(=O)[C@H](CO)NC(=O)[C@H](Cc2ccc(O)cc2)NC(=O)[C@H](CC(=O)O)NC(=O)[C@H](CO)NC(=O)[C@@H](NC(=O)[C@H](Cc2ccccc2)NC(=O)[C@@H](NC(=O)CNC(=O)[C@H](CCC(N)=O)NC(=O)[C@H](CO)NC(=O)[C@@H](N)Cc2ccc(O)cc2)[C@@H](C)O)[C@@H](C)O)C(=O)N[C@@H](CCC(N)=O)C(=O)N[C@@H](C)C(=O)N[C@@H](C)C(=O)N1)C(=O)N[C@@H](C)C(=O)N[C@@H](Cc1c[nH]c2ccccc12)C(=O)N[C@@H](CC(C)C)C(=O)N[C@@H](CC(C)C)C(=O)N[C@@H](C)C(=O)NCC(=O)NCC(=O)N1CCC[C@H]1C(=O)N[C@@H](CO)C(=O)N[C@@H](CO)C(=O)NCC(=O)N[C@@H](C)C(=O)N1CCC[C@H]1C(=O)N1CCC[C@H]1C(=O)N1CCC[C@H]1C(=O)N[C@@H](CO)C(N)=O` [mt-139] (H-YSQGTFTSDYSKYLDEQAAKEFIAWLLAGGPSSGAPPPS-NH2; lactam 16-20; N-terminus assumed)?
Answer: GLP-1 Receptor relative activity (GLP-1 receptor): 41.46%; Glucagon Receptor relative activity (glucagon receptor): 561.11%; GIP Receptor relative activity (GIP receptor): 12.22%
